Measured values reported in ChEMBL document CHEMBL5365528, “Expanding the Role of Boron in New Drug Chemotypes: Properties, Chemistry, Pharmaceutical Potential of Hemiboronic Naphthoids” (J Med Chem, 2023).
Converted amounts (≈) assume the structure as drawn. The source made the active and inactive calls. No cut-off for these calls is given here.

Legend:
[1] = Hepatic blood flow in human; assay type: ADME
[2] = Half life in human hepatocytes at 1 uM by LC-MS/MS analysis; assay type: ADME, cell-based, Hepatocyte
[3] = Lipophilicity, log D of the compound in Octanol/PBS buffer at pH 7.4 measured after 1 hr by LC-MS/MS analysis; assay type: physicochemical
[4] = Lipophilicity, log P of the compound in octanol/water by RP-HPLC analysis; assay type: physicochemical
[5] = Clearance in human hepatocytes at 1 uM measured per million cells by LC-MS/MS analysis; assay type: ADME, cell-based, Hepatocyte; settings: read-out: CLH
[6] = Kinetic solubility of the compound in PBS buffer at pH 7.4 measured after 2 hrs by LC-MS/MS analysis; assay type: physicochemical; settings: read-out: Kinetic_solubility
[7] = Protein binding in human plasma at 1 uM measured after 6 hrs by LC-MS/MS analysis; assay type: ADME, cell-free; settings: read-out: PPB (converted)
[8] = Permeability of the compound across apical to basolateral membrane in human Caco-2 cells at 10 uM measured for 90 mins by LC-MS/MS analysis; assay type: ADME, cell-based
[9] = Permeability of the compound across basolateral to apical membrane in human Caco-2 cells at 10 uM measured for 90 mins by LC-MS/MS analysis; assay type: ADME, cell-based
[10] = Efflux ratio of permeability across basolateral to apical membrane over apical to basolateral membrane in human Caco-2 cells at 10 uM measured for 90 mins by LC-MS/MS analysis; assay type: ADME, cell-based
[11] = Dissociation constant, pKa of the compound in 1:1 CH3CN/aqueous phosphate buffer; assay type: physicochemical
[12] = Stability of the compound in d6-DMSO with drop of D2O and measured for >1 month at room temperature by NMR spectroscopy; assay type: physicochemical; settings: time > 1 months, read-out: Stability
[13] = Dissociation constant, pKa of the compound in aqueous phosphate buffer with 3 to 4% DMSO; assay type: physicochemical
Candida albicans [14] = assay: Antifungal activity against Candida albicans UAMH 3489 assessed as inhibition of fungal growth incubated for 24 hrs; assay type: functional
[15] = molecular target: 3',5'-cyclic-AMP phosphodiesterase 4B (Homo sapiens) (UniProt Q07343); assay: Inhibition of N-terminal GST-tagged full length human PDE4B1 (1 to 736 residues) expressed in baculovirus-infected Sf9 cells using FAM-cAMP as substrate at 0.1 uM measured after 60 mins by fluorescence based analysis
Chain of 3',5'-cyclic-AMP phosphodiesterase 4B (Homo sapiens) (Q07343 whole entry, the tested form may be a part): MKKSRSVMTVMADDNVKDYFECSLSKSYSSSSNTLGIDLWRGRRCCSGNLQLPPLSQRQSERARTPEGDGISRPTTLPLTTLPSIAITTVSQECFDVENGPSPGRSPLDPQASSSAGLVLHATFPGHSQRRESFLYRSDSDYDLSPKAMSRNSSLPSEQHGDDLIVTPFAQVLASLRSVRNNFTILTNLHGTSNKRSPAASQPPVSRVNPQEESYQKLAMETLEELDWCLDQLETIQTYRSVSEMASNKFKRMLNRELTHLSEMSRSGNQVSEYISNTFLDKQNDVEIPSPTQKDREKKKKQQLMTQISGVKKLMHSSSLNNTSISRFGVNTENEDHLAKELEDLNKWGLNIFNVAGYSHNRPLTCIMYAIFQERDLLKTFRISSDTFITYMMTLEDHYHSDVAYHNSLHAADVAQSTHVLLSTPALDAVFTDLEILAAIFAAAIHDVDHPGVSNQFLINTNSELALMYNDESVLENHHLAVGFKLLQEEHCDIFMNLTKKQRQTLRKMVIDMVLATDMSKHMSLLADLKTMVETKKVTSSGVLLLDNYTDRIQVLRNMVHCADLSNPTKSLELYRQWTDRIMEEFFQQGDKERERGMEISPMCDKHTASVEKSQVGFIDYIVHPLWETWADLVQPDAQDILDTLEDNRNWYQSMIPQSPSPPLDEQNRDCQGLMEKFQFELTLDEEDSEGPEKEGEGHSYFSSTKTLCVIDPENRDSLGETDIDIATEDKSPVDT

Staphylococcus aureus [16] = assay: Antibacterial activity against Staphylococcus aureus ATCC 43300 assessed as inhibition of bacterial growth incubated for 18 hrs; assay type: functional
Staphylococcus aureus [17] = assay: Antibacterial activity against Staphylococcus aureus ATCC 43300 assessed as inhibition of bacterial growth at 100 uM incubated for 18 hrs; assay type: functional, organism-based
[18] = molecular target: T1, Poly [ADP-ribose] polymerase 1 (Homo sapiens, UniProt P09874); assay: Inhibition of N-terminal GST-tagged full length human PARP1 (2 to 1014 residues) expressed in baculovirus-infected Sf9 cells using histone as substrate incubated for 60 mins in presence of activated DNA, NAD+, NAD+-biotin by luminescence based analysis
T1 sequence (P09874 whole entry, the tested form may be a part): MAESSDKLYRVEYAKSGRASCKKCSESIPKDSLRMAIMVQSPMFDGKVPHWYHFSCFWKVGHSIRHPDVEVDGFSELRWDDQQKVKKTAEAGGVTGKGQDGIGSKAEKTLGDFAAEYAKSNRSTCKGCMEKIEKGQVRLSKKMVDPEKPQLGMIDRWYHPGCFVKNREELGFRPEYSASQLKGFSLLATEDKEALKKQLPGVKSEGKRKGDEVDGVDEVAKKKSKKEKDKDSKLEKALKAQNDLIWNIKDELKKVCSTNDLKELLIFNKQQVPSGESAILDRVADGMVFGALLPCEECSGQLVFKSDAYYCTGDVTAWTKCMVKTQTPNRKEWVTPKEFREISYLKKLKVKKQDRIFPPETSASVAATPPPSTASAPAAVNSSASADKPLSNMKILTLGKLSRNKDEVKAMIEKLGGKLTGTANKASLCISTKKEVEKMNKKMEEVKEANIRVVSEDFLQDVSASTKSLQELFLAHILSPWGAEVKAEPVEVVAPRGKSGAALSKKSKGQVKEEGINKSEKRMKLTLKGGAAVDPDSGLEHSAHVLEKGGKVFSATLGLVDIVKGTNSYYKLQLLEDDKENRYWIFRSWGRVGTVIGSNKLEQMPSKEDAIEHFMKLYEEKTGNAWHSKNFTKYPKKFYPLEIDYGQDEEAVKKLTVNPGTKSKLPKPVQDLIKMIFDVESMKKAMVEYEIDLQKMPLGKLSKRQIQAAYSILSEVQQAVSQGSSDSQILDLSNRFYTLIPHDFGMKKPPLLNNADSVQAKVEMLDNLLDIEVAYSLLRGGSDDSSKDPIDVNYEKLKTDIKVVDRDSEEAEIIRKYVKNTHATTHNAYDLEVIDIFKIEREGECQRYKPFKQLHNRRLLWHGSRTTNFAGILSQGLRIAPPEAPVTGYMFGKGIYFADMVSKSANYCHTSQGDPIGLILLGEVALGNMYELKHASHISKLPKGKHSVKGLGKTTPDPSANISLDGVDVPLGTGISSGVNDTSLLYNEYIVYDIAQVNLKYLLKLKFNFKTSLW

[19] = molecular target: T2, Poly [ADP-ribose] polymerase 2 (Homo sapiens, UniProt Q9UGN5); assay: Inhibition of N-terminal GST-tagged human PARP2 (2 to 583 residues) expressed in baculovirus-infected Sf9 cells using histone as substrate incubated for 60 mins in presence of activated DNA, NAD+, NAD+-biotin by luminescence based analysis
T2 sequence (Q9UGN5 whole entry, the tested form may be a part): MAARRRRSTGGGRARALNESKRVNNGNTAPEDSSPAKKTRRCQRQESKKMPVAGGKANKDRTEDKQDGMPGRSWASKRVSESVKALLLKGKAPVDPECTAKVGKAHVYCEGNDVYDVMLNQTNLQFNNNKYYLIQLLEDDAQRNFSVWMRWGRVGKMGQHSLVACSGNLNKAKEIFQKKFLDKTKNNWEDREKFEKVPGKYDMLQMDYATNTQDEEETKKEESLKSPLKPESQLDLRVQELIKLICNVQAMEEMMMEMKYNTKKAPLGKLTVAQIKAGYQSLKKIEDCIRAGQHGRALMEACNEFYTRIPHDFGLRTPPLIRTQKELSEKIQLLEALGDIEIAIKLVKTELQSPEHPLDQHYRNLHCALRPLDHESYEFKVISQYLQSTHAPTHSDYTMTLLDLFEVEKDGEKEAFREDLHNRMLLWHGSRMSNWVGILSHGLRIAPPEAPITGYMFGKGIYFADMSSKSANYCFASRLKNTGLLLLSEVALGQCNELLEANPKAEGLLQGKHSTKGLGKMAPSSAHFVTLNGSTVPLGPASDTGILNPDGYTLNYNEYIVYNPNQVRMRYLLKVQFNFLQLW

[20] = molecular target: T1, Poly [ADP-ribose] polymerase 1; assay: Inhibition of N-terminal GST-tagged full length human PARP1 (2 to 1014 residues) expressed in baculovirus-infected Sf9 cells using histone as substrate at 1000 nM incubated for 60 mins in presence of activated DNA, NAD+, NAD+-biotin by luminescence based analysis
[21] = molecular target: T2, Poly [ADP-ribose] polymerase 2; assay: Inhibition of N-terminal GST-tagged human PARP2 (2 to 583 residues) expressed in baculovirus-infected Sf9 cells using histone as substrate at 1000 nM incubated for 60 mins in presence of activated DNA, NAD+, NAD+-biotin by luminescence based analysis
Candida albicans [22] = assay: Antifungal activity against Candida albicans UAMH 3489 assessed as inhibition of fungal growth at 100 uM incubated for 24 hrs; assay type: functional, organism-based
[23] = molecular target: 3',5'-cyclic-AMP phosphodiesterase 4B (Homo sapiens) (UniProt Q07343); assay: Inhibition of N-terminal GST-tagged full length human PDE4B1 (1 to 736 residues) expressed in baculovirus-infected Sf9 cells using FAM-cAMP as substrate at 2 uM measured after 60 mins by fluorescence based analysis

OB1NN=C(c2ccccc2)c2ccccc21
percent of hepatic blood flow [1]: 65.2% | half-life at 1 µM [2]: 1.81 h | logD at 1 h [3]: 3.44 | logP [4]: 3.72 | hepatocyte CLint at 1 µM [5]: 12.8 µL/min/1e6 cells | solubility kinetic at 2 h [6]: 189 µM (≈ 42.1 µg/mL) | fraction unbound at 6 h, 1 µM [7]: 0.0141 | Papp A→B at 1.5 h, 10 µM [8]: 26.9 ×10⁻⁶ cm/s | Papp B→A at 1.5 h, 10 µM [9]: 22.1 ×10⁻⁶ cm/s | efflux ratio at 1.5 h, 10 µM [10]: 0.82 | pKa [11]: > 13 | remaining at 730 h [12]: > 99% | pKa [13]: > 14

OB1ON=Cc2cc(-c3ccc(F)cc3)ccc21
MIC (Candida albicans [14]): 4 µM (≈ 0.964 µg/mL)

OB1ON=Cc2cc(-c3ccccc3)ccc21
MIC (Candida albicans [14]): 8 µM (≈ 1.78 µg/mL)

N#Cc1ccc(Oc2ccc3c(c2)COB3O)cc1
inhibition [15]: 11%

COc1ccc2c(c1)C(c1ccccc1)=NOB2O
MIC (Staphylococcus aureus [16]): 8 µM (≈ 2.02 µg/mL)

OB1ON=C(c2ccccc2)c2ccccc21
percent of hepatic blood flow [1]: < 36.1% | half-life at 1 µM [2]: > 6 h | logD at 1 h [3]: 0.71 | logP [4]: 2.6 | hepatocyte CLint at 1 µM [5]: < 3.9 µL/min/1e6 cells | MIC (Staphylococcus aureus [16]): 128 µM (≈ 28.5 µg/mL) | MIC (Candida albicans [14]): 32 µM (≈ 7.14 µg/mL) | solubility kinetic at 2 h [6]: ≥ 403 µM | fraction unbound at 6 h, 1 µM [7]: 0.102 | Papp A→B at 1.5 h, 10 µM [8]: 34.5 ×10⁻⁶ cm/s | Papp B→A at 1.5 h, 10 µM [9]: 4 ×10⁻⁶ cm/s | efflux ratio at 1.5 h, 10 µM [10]: 0.12 | pKa [11]: 7 | remaining at 730 h [12]: > 99% | pKa [13]: ~5.5

OB1OCc2ccccc21 [BENZOXABOROLE]
pKa [11]: 9.2 | pKa [13]: 7.4

COc1ccc(C2=NOB(O)c3ccccc32)cc1
MIC (Staphylococcus aureus [16]): 64 µM (≈ 16.2 µg/mL) | MIC (Candida albicans [14]): 32 µM (≈ 8.1 µg/mL)

OB1NN=Cc2cc(F)ccc21
MIC (Candida albicans [14]): > 128 µM

OB1ON=Cc2cc(F)ccc21
Activity (Staphylococcus aureus [17]): inactive | MIC (Candida albicans [14]): 8 µM (≈ 1.32 µg/mL)

OB1ON=C(c2ccccc2)c2cc(F)ccc21
MIC (Staphylococcus aureus [16]): 64 µM (≈ 15.4 µg/mL) | MIC (Candida albicans [14]): 16 µM (≈ 3.86 µg/mL)

O=C(Nc1ccc2c(c1)B(O)NN=C2)c1ccc(F)cc1C(F)(F)F
Activity (Staphylococcus aureus [17]): inactive

OB1NN=C(c2ccccc2)c2cc(F)ccc21
Activity (Staphylococcus aureus [17]): inactive | MIC (Candida albicans [14]): > 128 µM

OC(Cn1cncn1)(Cn1cncn1)c1ccc(F)cc1F [FLUCONAZOLE]
MIC (Candida albicans [14]): 4 µM (≈ 1.23 µg/mL)

O=C(c1cc(CC2=NOB(O)c3ccccc32)ccc1F)N1CCN(C(=O)C2CC2)CC1
IC50 [18]: > 1000 nM | IC50 [19]: > 1000 nM | inhibition [20]: inactive | inhibition [21]: 18%

CC(C)NCC(O)COc1cccc2ccccc12 (stereo unspecified) [PROPRANOLOL]
Papp A→B at 1.5 h, 10 µM [8]: 3.4 ×10⁻⁶ cm/s

OB1NN=Cc2cc(-c3ccc(C(F)(F)F)cc3)ccc21
Activity (Candida albicans [22]): inactive

CCCC(=O)Nc1ccc(OCC(O)CNC(C)C)c(C(C)=O)c1 (stereo unspecified) [ACEBUTOLOL]
fraction unbound at 6 h, 1 µM [7]: 0.707

COC(=O)C1=C(C)NC(C)=C(C(=O)OCCN(C)Cc2ccccc2)C1c1cccc([N+](=O)[O-])c1 (stereo unspecified) [NICARDIPINE]
solubility kinetic at 2 h [6]: 4.7 µM (≈ 2.25 µg/mL)

N#Cc1ccc(Oc2ccc3c(c2)C=NOB3O)cc1
Activity (Candida albicans [22]): inactive | inhibition [23]: 23%

OB1ON=Cc2cc(-c3ccc(C(F)(F)F)cc3)ccc21
MIC (Candida albicans [14]): 0.125 µM (≈ 0.0364 µg/mL)

C[C@]12CC[C@H]3[C@@H](CCC4=CC(=O)CC[C@@]43C)[C@@H]1CC[C@@H]2O [TESTOSTERONE]
percent of hepatic blood flow [1]: 89.1% | half-life at 1 µM [2]: 0.417 h | hepatocyte CLint at 1 µM [5]: 60.2 µL/min/1e6 cells

CCCSc1ccc2nc(NC(=O)OC)[nH]c2c1 [ALBENDAZOLE]
logD at 1 h [3]: 3.57

C[C@H]1O[C@@H](O[C@H]2[C@@H](O)C[C@H](O[C@H]3[C@@H](O)C[C@H](O[C@H]4CC[C@@]5(C)[C@H](CC[C@@H]6[C@@H]5C[C@@H](O)[C@]5(C)[C@@H](C7=CC(=O)OC7)CC[C@]65O)C4)O[C@@H]3C)O[C@@H]2C)C[C@H](O)[C@@H]1O [DIGOXIN]
Papp A→B at 1.5 h, 10 µM [8]: 1 ×10⁻⁶ cm/s | Papp B→A at 1.5 h, 10 µM [9]: 13.1 ×10⁻⁶ cm/s | efflux ratio at 1.5 h, 10 µM [10]: 13.4

OB1ON=Cc2cc(-c3ccoc3)ccc21
MIC (Candida albicans [14]): 2 µM (≈ 0.426 µg/mL)

OB1ON=Cc2cc(-c3ccsc3)ccc21
MIC (Candida albicans [14]): 2 µM (≈ 0.458 µg/mL)

O=C(Nc1ccc2c(c1)B(O)NN=C2c1ccccc1)c1ccc(F)cc1C(F)(F)F
MIC (Staphylococcus aureus [16]): 64 µM (≈ 27.3 µg/mL)

OB1ON=Cc2ccccc21
percent of hepatic blood flow [1]: 81.2% | half-life at 1 µM [2]: 0.785 h | logD at 1 h [3]: ~0.65 | logP [4]: 1.23 | hepatocyte CLint at 1 µM [5]: 29.7 µL/min/1e6 cells | MIC (Candida albicans [14]): 16 µM (≈ 2.35 µg/mL) | solubility kinetic at 2 h [6]: ≥ 386 µM | fraction unbound at 6 h, 1 µM [7]: 0.71 | Papp A→B at 1.5 h, 10 µM [8]: 33 ×10⁻⁶ cm/s | Papp B→A at 1.5 h, 10 µM [9]: 4.4 ×10⁻⁶ cm/s | efflux ratio at 1.5 h, 10 µM [10]: 0.13 | pKa [11]: 7.1 | remaining at 730 h [12]: > 99% | pKa [13]: 5.5

CN[C@H](CC(C)C)C(=O)N[C@H]1C(=O)N[C@@H](CC(N)=O)C(=O)N[C@H]2C(=O)N[C@H]3C(=O)N[C@H](C(=O)N[C@H](C(=O)O)c4cc(O)cc(O)c4-c4cc3ccc4O)[C@H](O)c3ccc(c(Cl)c3)Oc3cc2cc(c3O[C@@H]2O[C@H](CO)[C@@H](O)[C@H](O)[C@H]2O[C@H]2C[C@](C)(N)[C@H](O)[C@H](C)O2)Oc2ccc(cc2Cl)[C@H]1O [VANCOMYCIN]
MIC (Staphylococcus aureus [16]): 4 µM (≈ 5.8 µg/mL)

N#Cc1ccc(Oc2ccc3c(c2)C(c2ccccc2)=NOB3O)cc1
inhibition [23]: 15%

O=C(c1cc(CC2=NNB(O)c3ccccc32)ccc1F)N1CCN(C(=O)C2CC2)CC1
IC50 [18]: ~540 nM | IC50 [19]: 120 nM

N#Cc1ccc(Oc2ccc3c(c2)C=NNB3O)cc1
inhibition [23]: 5%

CN(C)CCCN1c2ccccc2CCc2ccccc21 [IMIPRAMINE]
solubility kinetic at 2 h [6]: 457 µM (≈ 128 µg/mL)

OB1OCc2cc(F)ccc21 [TAVABOROLE]
MIC (Staphylococcus aureus [16]): 128 µM (≈ 19.4 µg/mL) | MIC (Candida albicans [14]): 1 µM (≈ 0.152 µg/mL) | solubility kinetic at 2 h [6]: > 658 µM | fraction unbound at 6 h, 1 µM [7]: 0.34 | pKa [13]: 7.4

OB1NN=Cc2ccccc21
percent of hepatic blood flow [1]: < 36.1% | half-life at 1 µM [2]: > 6 h | logD at 1 h [3]: 2.03 | logP [4]: 1.94 | hepatocyte CLint at 1 µM [5]: < 3.9 µL/min/1e6 cells | Activity (Candida albicans [22]): inactive | solubility kinetic at 2 h [6]: ≥ 439 µM | fraction unbound at 6 h, 1 µM [7]: 0.082 | Papp A→B at 1.5 h, 10 µM [8]: 30.1 ×10⁻⁶ cm/s | Papp B→A at 1.5 h, 10 µM [9]: 30.6 ×10⁻⁶ cm/s | efflux ratio at 1.5 h, 10 µM [10]: 1 | pKa [11]: > 14 | remaining at 730 h [12]: > 99% | pKa [13]: > 14

COc1ccc(C2=NOB(O)c3ccccc32)cc1Br
MIC (Staphylococcus aureus [16]): 16 µM (≈ 5.31 µg/mL)
